Assay results from PMC12738692, “Identification, characterization, and structure-activity relationship of the ASIC3-selective peptide WRPRFa” (Communications Chemistry, 2025).
Where a chain is given by its changes, count along the chain named. pEC50: −log10 of the molar value. Where no end group is shown, it is not given here.

How the values were obtained:
[1] = molecular target: T1, human ASIC3 (Homo sapiens, UniProt Q9UHC3); format: cell-based; settings: 30 µM, QPatch II
T1 construct: CHO cells stably expressing human ASIC3 (NM_004769.1)
T1 sequence (Q9UHC3 1-531): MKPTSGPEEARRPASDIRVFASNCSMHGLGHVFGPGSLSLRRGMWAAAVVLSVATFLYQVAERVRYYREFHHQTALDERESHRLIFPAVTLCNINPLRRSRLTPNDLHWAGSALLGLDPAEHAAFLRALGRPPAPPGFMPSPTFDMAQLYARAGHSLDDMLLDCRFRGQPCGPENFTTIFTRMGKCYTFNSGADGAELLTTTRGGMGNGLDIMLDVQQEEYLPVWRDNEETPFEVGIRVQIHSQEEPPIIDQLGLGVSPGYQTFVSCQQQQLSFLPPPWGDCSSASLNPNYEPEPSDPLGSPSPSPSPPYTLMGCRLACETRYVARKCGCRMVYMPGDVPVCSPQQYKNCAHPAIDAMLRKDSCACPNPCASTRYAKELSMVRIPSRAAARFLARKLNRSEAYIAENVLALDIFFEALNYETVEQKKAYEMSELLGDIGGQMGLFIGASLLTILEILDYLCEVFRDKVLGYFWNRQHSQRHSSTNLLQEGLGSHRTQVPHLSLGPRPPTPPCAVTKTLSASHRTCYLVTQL

[2] = molecular target: T2, ASIC3 E421Q (Homo sapiens, UniProt Q9UHC3, E421Q); test: MPC peptide activity on ASIC3 E421Q mutant; format: cell-based; settings: Emax constrained, read-out: EC50 (95% CI)
T2 construct: human ASIC3 (NM_004769.4); P2A-mCherry reporter (C, cleaved yes); expressed in transfected cells; host or cells: CHO cells (85050302, Sigma), transient transfection
T2 sequence (Q9UHC3 1-531 E421Q): T1 sequence (Q9UHC3 1-531) with E421Q
Experimental: We individually mutated the four glutamates to glutamine to remove their charge but maintain the side chain structure (Fig. 4C). We tested each mutant by incubating HEK cells stably expressing ASIC3 or CHO cells transfected with mutant ASIC3 with 30 µM WRPRFa before a pH 6.3 acid stimulus.
Plasmids were transfected into CHO cells using Lipofectamine 3000 (Thermo) according to the manufacturer’s protocol. Cells were used for patch-clamp recordings 24–48 h after transfection.
CHO and HEK cells were tested in the whole-cell configuration on MPC platforms using an Axopatch 200B amplifier (Axon Instruments, San Jose, CA) and a Digidata 1322A or Digidata 1440A digitizer (Axon) using pClamp 9.2 or 10.7 (Molecular Devices, San Jose, CA), respectively. When testing transfected cells, red fluorescence from the cleaved mCherry reporter was used to identify cells expressing ASIC3, ASIC131, or ASIC313. For cells expressing transfected ASIC1a or ASIC2a, the green signal from the cleaved eGFP reporter was used. All electrophysiology data were analyzed with Clampfit 11.1 (Molecular Devices).
For peptide concentration-response curves, Bottom was set to 0 and Top was constrained to ≤ 1 for peptides that approached plateau phase or where I3s/Ipk reached 1. […] For activation- or desensitization-pH curves, Bottom was set to 0 and Top constrained to 1.

WRPRF-NH2 [WRPRFa]
channels affected [1]: 80% | pEC50 [2]: ≤ 4.65
